Experimental data published in article PMC7716246 (ACS chemical neuroscience, 2020).
Where two headings read alike, the source gives them in different places.

Legend:
[1] = UV-vis Cu^2+ binding and Job's plot analysis of AMF:Cu^2+ stoichiometry; type: physicochemical
Aβ fibrils (Aβ40) = Aβ fibrils (Aβ40) (Homo sapiens, UniProt P05067); test: Thioflavin T; type: binding
amyloid plaques = type: binding, 5xFAD transgenic mice; conditions: brain sections of 7 month old 5xFAD mice
Aβ42 peptide [2] = molecular target: T1, Aβ42 peptide (Homo sapiens, UniProt P05067); test: Inhibition of Aβ42 aggregation, ThT fluorescence; type: biochemical; conditions: in presence and absence of Cu^2+ or Zn^2+; [Aβ] = [M^2+] = [AMF] = 25 μM, 37 °C, 24 h
Aβ42 peptide [3] = molecular target: T1, Aβ42 peptide; test: Inhibition of Aβ42 aggregation, TEM and native gel electrophoresis/Western blot; type: biochemical; conditions: 37 °C, 24 h; for Aβ42 aggregates observed by TEM: [Aβ42] = [M^2+] = [AMF] = 25 μM; for Aβ42 aggregates by native gel/Western blot: 25 μM
Aβ42 fibrils [4] = molecular target: T2, Aβ42 fibrils (Homo sapiens, UniProt P05067); test: Disaggregation of preformed Aβ42 fibrils, ThT fluorescence; type: biochemical; conditions: in the absence and presence of Cu^2+; [Aβ] = [M^2+] = [AMF] = 25 μM, additional 24 h at 37 °C
Aβ42 fibrils [5] = molecular target: T2, Aβ42 fibrils; type: biochemical; conditions: 25 μM, 37 °C; for Disaggregation of Aβ42 aggregates (TEM, native gel/Western blot): 24 h then 24 h with AMF
[6] = Cu^2+-induced ascorbate consumption assay; type: biochemical; conditions: [Cu^2+] = 10 μM, [AMF] = 24 μM, [ascorbate] = 100 μM
[7] = 2:1 Metal:AMF mixture, [M^2+]tot = 25 μM, [AMF]tot = 50 μM
[8] = pH 7.4; 2:1 Metal:AMF mixture, [M^2+]tot = 25 μM, [AMF]tot = 50 μM

T2 sequence (P05067 672-713 limits assumed): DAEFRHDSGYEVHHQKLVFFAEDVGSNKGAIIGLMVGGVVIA
T1 sequence (P05067 672-713 limits assumed): as above
Chain of Aβ fibrils (Aβ40) (P05067 672-711 limits assumed): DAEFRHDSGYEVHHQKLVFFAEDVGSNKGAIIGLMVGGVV

SMILES: O=c1cc(-c2ccc(O)c(-c3c(O)cc(O)c4c(=O)cc(-c5ccc(O)cc5)oc34)c2)oc2cc(O)cc(O)c12 [AMF, amentoflavone]
- Break in Job's plot ([1]; AMF and Cu^2+ in EtOH-PBS (1:10)): 0.7 mole fraction of Cu
- Cu bound per AMF (stoichiometry) ([1]; from Job's plot): at least 2 equiv
- Ki (Aβ fibrils (Aβ40)): 287 ± 20 nM
- Fluorescence intensity of stained brain sections (amyloid plaques; 25 μM): strong fluorescent intensity
- Pearson's correlation coefficient, colocalization with HJ3.4 immunofluorescence (amyloid plaques; [AMF] = [Cu^2+] = 25 μM, [HJ3.4] = 1 μg/mL): 0.65
- Effect on Aβ42 fibrillization (ThT fluorescence) (Aβ42 peptide [2]): dramatically reduced the fibrillization of Aβ42
- Aβ42 aggregates observed by TEM (Aβ42 peptide [3]; in the absence and presence of Cu^2+): only small amorphous aggregates were observed
- Aβ42 aggregates by native gel/Western blot (Aβ42 peptide [3]; in the presence of Cu^2+): the amount of soluble Aβ42 oligomers is also reduced
- Aβ42 aggregates by native gel/Western blot (Aβ42 peptide [3]; in the presence of Zn^2+): a wide range of various-size aggregates is formed
- Aβ42 aggregates observed by TEM (Aβ42 peptide [3]; in the presence of Zn^2+): a range of amorphous and fibrillar aggregates is formed
- Aβ42 aggregates by native gel/Western blot (Aβ42 peptide [3]; no metal ions): dramatically reduces the amount of large Aβ42 aggregates
- Disaggregation of preformed Aβ42 fibrils (ThT fluorescence) (Aβ42 fibrils [4]): efficient at reducing the amount of Aβ42 fibrils
- Disaggregation of Aβ42 aggregates (TEM, native gel/Western blot) (Aβ42 fibrils [5]; Cu^2+-incubated Aβ42 aggregates): reduction in the amount of both large aggregates and smaller Aβ42 oligomers
- Disaggregation of Aβ42 aggregates (TEM, native gel/Western blot) (Aβ42 fibrils [5]; Zn^2+-incubated Aβ42 amorphous aggregates): decreases to some extent
- Disaggregation of Aβ42 fibrils (TEM, native gel/Western blot) (Aβ42 fibrils [5]; no metal ions, 24 h fibrilization then 24 h with AMF): disaggregates the Aβ42 fibrils efficiently
- Effect on ascorbate consumption ([6]; AMF added to the Cu^2+-Aβ42-ascorbate solution, [Aβ42] = 12 μM): efficiently reduce the consumption of ascorbate
- Effect on ascorbate consumption ([6]; premixed AMF-Cu^2+ complex, with monomeric Aβ42 12 μM): significant inhibition of the ascorbate consumption
- pCu (pM = −log[M]free) ([7]; pH 6.6): 9.62
- pCu (pM = −log[M]free) ([7]; pH 7.4): 10.44
- pZn (pM = −log[M]free) [8]: 8.15
